Data as given in ChEMBL document CHEMBL1201862, “PubChem BioAssay data set” (2004).
Activity calls are given as the source filed them.

Key:
SUMO-activating enzyme [1] = molecular target: T1, SUMO-activating enzyme (Homo sapiens, UniProt Q9UBT2); experiment: inhibitors of in vitro SUMOylation cascade, primary screen, biochemical, HTRF, uHTS (AID 2006); type: protein-complex assay
[2] = molecular target: Likely tRNA 2'-phosphotransferase (Candida albicans (strain SC5314 / ATCC MYA-2876) (Yeast), UniProt Q5A7N4); experiment: TPT1 tRNA phosphotransferase inhibitors, dose response, biochemical, fluorescence polarization (AID 2160)
Likely tRNA 2'-phosphotransferase, sequence (Q5A7N4 whole entry): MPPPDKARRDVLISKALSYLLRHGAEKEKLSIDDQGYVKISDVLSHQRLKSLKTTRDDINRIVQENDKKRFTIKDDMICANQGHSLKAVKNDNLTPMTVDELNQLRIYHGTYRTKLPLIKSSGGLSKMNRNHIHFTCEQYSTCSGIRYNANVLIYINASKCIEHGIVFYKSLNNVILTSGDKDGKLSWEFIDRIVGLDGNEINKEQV

[3] = molecular target: Guanyl-specific ribonuclease T1 (Aspergillus oryzae (strain ATCC 42149 / RIB 40), UniProt P00651); experiment: RNase T1 inhibitors, dose response, counter-screen for TPT1 inhibitor project, biochemical, fluorescence polarization, 1536-well (AID 2167)
SUMO-activating enzyme [4] = molecular target: T1, SUMO-activating enzyme; experiment: SUMOylation inhibitor hit validation, confirmation, SUMOylation inhibitor project, biochemical, AlphaScreen (AID 2018); type: functional
Interleukin-8 = molecular target: T2, Interleukin-8 (Homo sapiens, UniProt P10145); experiment: SAR analysis of tumor necrosis factor alpha (TNF-alpha) induced IL-8 secretion in MCF-7/NOD1 cells. [Related pubchem assays (depositor defined):AID1575, AID2250, AID2260]; type: functional, cell-based
T2 sequence (P10145 whole entry): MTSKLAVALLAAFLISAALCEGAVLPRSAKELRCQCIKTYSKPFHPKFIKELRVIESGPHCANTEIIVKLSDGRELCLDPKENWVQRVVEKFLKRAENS

Protein Rev = Protein Rev (Human immunodeficiency virus type 1 group M subtype B (isolate WMJ22)(HIV-1), UniProt P05866); experiment: HIV-1 Rev-RRE RNA binding disruptors, dose response, biochemical, protein-RNA interaction (AID 842); parameters: species or system Human immunodeficiency virus 1
[5] = molecular target: Lysosomal acid glucosylceramidase (Homo sapiens, UniProt P04062); experiment: Dose response cell-based high throughput screening assay to identify enhancers of beta-glucosidase activity. [Related pubchem assays: 784 ]; type: functional
Lysosomal acid glucosylceramidase, sequence (P04062 whole entry, the tested form may be a part): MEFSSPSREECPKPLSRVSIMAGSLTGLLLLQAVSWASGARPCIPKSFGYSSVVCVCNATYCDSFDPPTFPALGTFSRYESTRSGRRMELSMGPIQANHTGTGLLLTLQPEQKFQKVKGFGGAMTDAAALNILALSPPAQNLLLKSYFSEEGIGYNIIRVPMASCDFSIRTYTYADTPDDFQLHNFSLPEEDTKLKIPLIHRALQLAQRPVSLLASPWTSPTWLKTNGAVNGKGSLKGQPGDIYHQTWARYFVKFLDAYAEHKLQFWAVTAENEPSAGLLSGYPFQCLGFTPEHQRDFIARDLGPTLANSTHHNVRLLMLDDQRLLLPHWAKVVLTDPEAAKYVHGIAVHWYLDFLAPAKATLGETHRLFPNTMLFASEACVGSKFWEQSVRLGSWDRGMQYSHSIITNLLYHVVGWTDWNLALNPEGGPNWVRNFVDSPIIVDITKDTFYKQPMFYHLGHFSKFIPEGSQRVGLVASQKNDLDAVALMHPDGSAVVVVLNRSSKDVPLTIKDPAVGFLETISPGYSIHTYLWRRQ

[6] = inhibitors of HIV Env-driven cell fusion, dose response, cherry-pick (AID 652057); type: functional, cell-based
[7] = inhibitors of clade B AD8 Env fusion, dose response, cell-based, cherry-pick (AID 652062); type: functional;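 note: luciferase signal from cell-cell fusion driven by HIV-1 clade B AD8 Env; potency is for inhibitors of fusion seen as a drop in luminescence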
Cytochrome P450 2C19 = Cytochrome P450 2C19 (Homo sapiens, UniProt P33261); experiment: qHTS Assay for Inhibitors and Substrates of Cytochrome P450 2C19. [Related pubchem assays: 410 ]; type: ADME; details: read-out: Potency
[8] = off-target signal loss in HeLa-CEM21 co-culture – HeLa F-luc CTL cells, cherry-picked, counter-screen for HIV-1 Env fusion inhibitor project, dose response (AID 652040); type: functional, cell-based;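 note: potency for signal decrease marking cytotoxic or nonspecific inhibition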
[9] = CEM21 lymphoblast cell cytotoxicity, dose response, cytotoxicity control for viral fusion inhibitor project, CellTiter-Glo luminescence, cherry-picked (AID 652042); type: functional, cell-based;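 note: potency for signal decrease meaning cytotoxicity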
[10] = ZM109 Env clade C HIV-1 fusion inhibitors, dose response, HeLa effector, CEM target cells, luciferase, cherry-pick (AID 652058); type: functional, cell-based
Cytochrome P450 2C9 = Cytochrome P450 2C9 (Homo sapiens, UniProt P11712); details: Potency
[11] = molecular target: Scavenger receptor class B member 1 (Mus musculus, UniProt Q61009); experiment: inhibitors of SR-BI mediated HDL lipid uptake, dose response, ldlA[mSR-BI] cells, fluorescence, cherry pick (AID 493194); type: functional, cell-based;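 note: cellular uptake of fluorescent DiI-labeled HDL measured as cell fluorescence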
[12] = molecular target: Mothers against decapentaplegic homolog 3 (Homo sapiens, UniProt P84022); experiment: Smad3 binding inhibitors, lysate ELISA, dose response, cell lysate, secondary confirmation, chemiluminescent ELISA, HEK293 lysate (AID 1058); type: functional
[13] = molecular target: T3, Kappa-type opioid receptor (Homo sapiens, UniProt P41145); type: functional
T3 sequence (P41145 whole entry): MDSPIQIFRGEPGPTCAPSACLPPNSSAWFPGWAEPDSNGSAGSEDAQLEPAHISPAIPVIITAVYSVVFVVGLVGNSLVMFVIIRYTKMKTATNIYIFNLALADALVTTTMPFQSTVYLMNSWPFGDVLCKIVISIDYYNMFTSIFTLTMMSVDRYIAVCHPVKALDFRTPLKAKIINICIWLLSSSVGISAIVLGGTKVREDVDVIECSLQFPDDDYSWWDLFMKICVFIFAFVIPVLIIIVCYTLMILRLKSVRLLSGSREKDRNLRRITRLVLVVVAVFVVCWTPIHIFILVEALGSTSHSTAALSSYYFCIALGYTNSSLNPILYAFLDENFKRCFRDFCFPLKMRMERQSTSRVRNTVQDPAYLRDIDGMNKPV

[14] = molecular target: Sphingosine 1-phosphate receptor 1 (Homo sapiens, UniProt P21453); type: functional;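 note: Tango beta-arrestin reporter U2OS cells stimulated with S1P near its EC80; inhibitor potency meaning antagonism of receptor activation by the natural agonist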
[15] = Luminescence-based dose response cell-based high throughput screening assay for cytotoxic compounds using the IEC-6 intestinal epithelial cell line. [Related pubchem assays: 1858 (Summary AID.), 1825 (Counterscreen.), 1907 (Confirmation screen.)]; type: functional
[16] = molecular target: G2/mitotic-specific cyclin-B1 (Homo sapiens, UniProt P14635); experiment: Counterscreen assay for inhibitors of Wee1 degradation: dose response cell-based assay to identify inhibitors of cyclin B degradation. [Related pubchem assays: 1410, 1321 ]; type: functional
[17] = molecular target: Luciferin 4-monooxygenase (Photinus pyralis, UniProt P08659); experiment: firefly luciferase enzyme inhibitors, dose response, biochemical, luminescence (AID 1891)
[18] = molecular target: T3, Kappa-type opioid receptor; type: functional; remark: listed apart in the source
[19] = microbe, parasite or virus in culture; type: functional; details: Mycobacterium tuberculosis
[20] = molecular target: Sphingosine 1-phosphate receptor 4 (Homo sapiens, UniProt O95977); experiment: Fluorescence dose response cell-based high throughput screening assay for antagonists of the Sphingosine 1-Phosphate Receptor 4 (S1P4). [Related pubchem assays: 1524 (Confirmation in triplicates.), 1510 (Primary screen.)]; type: functional
Beta-galactosidase [21] = molecular target: T4, Beta-galactosidase (Escherichia coli, UniProt Q8VNN2); experiment: PubChem AID 485352; type: functional
T4 sequence (Q8VNN2 whole entry): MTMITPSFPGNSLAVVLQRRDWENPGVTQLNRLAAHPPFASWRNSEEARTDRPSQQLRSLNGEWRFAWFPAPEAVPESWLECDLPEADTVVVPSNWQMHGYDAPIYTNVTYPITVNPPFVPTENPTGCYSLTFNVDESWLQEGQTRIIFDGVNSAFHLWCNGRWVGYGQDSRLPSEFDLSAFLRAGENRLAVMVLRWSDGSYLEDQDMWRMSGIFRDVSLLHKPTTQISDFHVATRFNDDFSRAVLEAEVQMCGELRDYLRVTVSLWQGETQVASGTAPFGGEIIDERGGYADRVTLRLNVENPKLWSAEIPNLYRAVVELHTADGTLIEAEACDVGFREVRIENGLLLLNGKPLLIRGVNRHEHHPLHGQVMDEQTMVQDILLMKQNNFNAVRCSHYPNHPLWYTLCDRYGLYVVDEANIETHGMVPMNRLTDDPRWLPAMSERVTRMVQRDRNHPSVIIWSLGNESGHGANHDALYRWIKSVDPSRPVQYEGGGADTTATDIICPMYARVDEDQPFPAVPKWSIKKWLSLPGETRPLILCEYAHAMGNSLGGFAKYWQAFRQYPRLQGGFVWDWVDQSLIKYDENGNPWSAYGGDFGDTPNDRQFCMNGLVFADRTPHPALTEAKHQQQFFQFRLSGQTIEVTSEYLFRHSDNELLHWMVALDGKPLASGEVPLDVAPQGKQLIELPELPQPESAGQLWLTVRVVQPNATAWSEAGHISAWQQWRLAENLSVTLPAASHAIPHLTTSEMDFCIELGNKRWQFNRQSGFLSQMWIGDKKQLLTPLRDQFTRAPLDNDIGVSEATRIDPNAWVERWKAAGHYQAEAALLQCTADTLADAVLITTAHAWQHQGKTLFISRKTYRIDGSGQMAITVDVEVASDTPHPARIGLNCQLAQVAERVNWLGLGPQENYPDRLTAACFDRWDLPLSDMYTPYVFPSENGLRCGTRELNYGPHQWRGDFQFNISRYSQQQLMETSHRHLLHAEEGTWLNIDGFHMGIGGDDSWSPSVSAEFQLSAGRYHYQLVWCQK

Beta-galactosidase [22] = molecular target: T4, Beta-galactosidase; type: functional
HeLa = experiment: Cytotoxicity counterscreen assay for transcriptional activators of heat shock protein 70 (Hsp70). [Related pubchem assays: 1203, 1252 ]; type: functional; details: Homo sapiens
[23] = Luminescence Cell-Based Dose Confirmation HTS to Identify Inhibitors of Platelet Dense Granule Release. [Related pubchem assays: 1663 (Primary HTS), 1678 (Summary of Project)]; type: functional
INS1 = experiment: beta cell apoptosis inhibitors, cytokine rescue, dose response, luminescence, retest (AID 449756); type: functional, cell-based; details: Rattus norvegicus;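 note: cell death triggered by IL-1 beta plus TNF-alpha plus IFN-gamma mixture; protective hits raise ATP signal compared with cytokine alone wells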
Wee1-like protein kinase = Wee1-like protein kinase (Homo sapiens, UniProt P30291); experiment: Dose Response Cell-based Assay for Inhibitors of Wee1 Degradation. [Related pubchem assays: 1410, 1321 ]; type: functional
[24] = molecular target: E3 ubiquitin-protein ligase Mdm2 (Homo sapiens, UniProt Q00987); experiment: enhancers of MDM2-luciferase reporter signal, concentration-effect titration, project on inhibitors of MDM2 ubiquitin ligase, cellular assay, luminescent readout, 384-well plate format (AID 1394); type: functional;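 note: MDM2 E3 inhibitors raise luminescence so EC50 is for signal enhancement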
E3 ubiquitin-protein ligase Mdm2, sequence (Q00987 whole entry): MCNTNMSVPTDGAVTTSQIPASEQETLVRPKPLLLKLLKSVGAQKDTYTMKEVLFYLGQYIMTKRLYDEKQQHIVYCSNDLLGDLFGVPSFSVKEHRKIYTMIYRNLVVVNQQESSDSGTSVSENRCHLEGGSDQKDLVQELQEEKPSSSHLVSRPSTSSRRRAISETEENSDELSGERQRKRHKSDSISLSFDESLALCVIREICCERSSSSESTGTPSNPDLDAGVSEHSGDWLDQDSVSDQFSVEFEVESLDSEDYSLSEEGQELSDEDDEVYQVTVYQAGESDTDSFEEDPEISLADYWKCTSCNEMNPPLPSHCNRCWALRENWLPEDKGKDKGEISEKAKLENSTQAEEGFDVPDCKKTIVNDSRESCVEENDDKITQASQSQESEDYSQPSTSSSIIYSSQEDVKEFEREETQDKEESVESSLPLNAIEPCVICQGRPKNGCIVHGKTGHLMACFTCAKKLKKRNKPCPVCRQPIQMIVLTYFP

[25] = cytotoxicity in HEK-293T cells, dose response, cytotoxicity control for TCR NF-kB inhibitor project, luminescence, T-cell screen hits (AID 489026); type: functional, cell-based;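 note: cells exposed to compound about 14 hours before the viability readout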
[26] = molecular target: Sphingosine 1-phosphate receptor 2 (Homo sapiens, UniProt O95136); experiment: Dose Response Cell Based Assay for Antagonists of the S1P2 Receptor. [Related pubchem assays: 856, 736 ]; type: functional
Sphingosine 1-phosphate receptor 2, sequence (O95136 whole entry): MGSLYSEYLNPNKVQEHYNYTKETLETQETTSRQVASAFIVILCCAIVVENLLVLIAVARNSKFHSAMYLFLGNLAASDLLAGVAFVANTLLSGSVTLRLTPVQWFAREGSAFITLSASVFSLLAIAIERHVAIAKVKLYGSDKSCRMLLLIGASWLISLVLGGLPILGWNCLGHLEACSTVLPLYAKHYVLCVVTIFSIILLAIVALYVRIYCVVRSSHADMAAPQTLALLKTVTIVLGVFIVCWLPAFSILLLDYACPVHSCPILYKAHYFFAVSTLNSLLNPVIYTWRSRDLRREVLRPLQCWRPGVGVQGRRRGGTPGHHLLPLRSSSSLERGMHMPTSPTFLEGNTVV

[27] = molecular target: T5, Type-1 angiotensin II receptor (Homo sapiens, UniProt P30556); experiment: AT1 receptor antagonists, dose response, selectivity assay for APJ receptor antagonist project, cell-based, uHTS hits (AID 463214); type: functional;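 note: antagonist potency against angiotensin II stimulated AT1 response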
T5 sequence (P30556 whole entry): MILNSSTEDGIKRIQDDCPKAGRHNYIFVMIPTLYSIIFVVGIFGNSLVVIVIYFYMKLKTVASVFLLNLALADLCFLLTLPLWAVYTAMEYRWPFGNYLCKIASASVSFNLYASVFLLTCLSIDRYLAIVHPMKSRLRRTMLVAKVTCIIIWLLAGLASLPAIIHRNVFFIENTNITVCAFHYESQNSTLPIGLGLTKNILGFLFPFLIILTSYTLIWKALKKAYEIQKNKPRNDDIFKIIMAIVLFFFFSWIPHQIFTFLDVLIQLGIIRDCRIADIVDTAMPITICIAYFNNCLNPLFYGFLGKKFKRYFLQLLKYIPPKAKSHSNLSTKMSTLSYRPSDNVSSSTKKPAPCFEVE

Staphylococcus aureus = experiment: Inhibitors of Bacterial Quorum Sensing Structure Activity Relationship (SAR) Analysis: Dose Response Assay. [Related pubchem assays: 700, 527 ]; type: functional, organism-based
[28] = molecular target: Nucleotide-binding oligomerization domain-containing protein 2 (Homo sapiens, UniProt Q9HC29); experiment: PubChem AID 2334; type: functional
Nucleotide-binding oligomerization domain-containing protein 2, sequence (Q9HC29 whole entry, the tested form may be a part): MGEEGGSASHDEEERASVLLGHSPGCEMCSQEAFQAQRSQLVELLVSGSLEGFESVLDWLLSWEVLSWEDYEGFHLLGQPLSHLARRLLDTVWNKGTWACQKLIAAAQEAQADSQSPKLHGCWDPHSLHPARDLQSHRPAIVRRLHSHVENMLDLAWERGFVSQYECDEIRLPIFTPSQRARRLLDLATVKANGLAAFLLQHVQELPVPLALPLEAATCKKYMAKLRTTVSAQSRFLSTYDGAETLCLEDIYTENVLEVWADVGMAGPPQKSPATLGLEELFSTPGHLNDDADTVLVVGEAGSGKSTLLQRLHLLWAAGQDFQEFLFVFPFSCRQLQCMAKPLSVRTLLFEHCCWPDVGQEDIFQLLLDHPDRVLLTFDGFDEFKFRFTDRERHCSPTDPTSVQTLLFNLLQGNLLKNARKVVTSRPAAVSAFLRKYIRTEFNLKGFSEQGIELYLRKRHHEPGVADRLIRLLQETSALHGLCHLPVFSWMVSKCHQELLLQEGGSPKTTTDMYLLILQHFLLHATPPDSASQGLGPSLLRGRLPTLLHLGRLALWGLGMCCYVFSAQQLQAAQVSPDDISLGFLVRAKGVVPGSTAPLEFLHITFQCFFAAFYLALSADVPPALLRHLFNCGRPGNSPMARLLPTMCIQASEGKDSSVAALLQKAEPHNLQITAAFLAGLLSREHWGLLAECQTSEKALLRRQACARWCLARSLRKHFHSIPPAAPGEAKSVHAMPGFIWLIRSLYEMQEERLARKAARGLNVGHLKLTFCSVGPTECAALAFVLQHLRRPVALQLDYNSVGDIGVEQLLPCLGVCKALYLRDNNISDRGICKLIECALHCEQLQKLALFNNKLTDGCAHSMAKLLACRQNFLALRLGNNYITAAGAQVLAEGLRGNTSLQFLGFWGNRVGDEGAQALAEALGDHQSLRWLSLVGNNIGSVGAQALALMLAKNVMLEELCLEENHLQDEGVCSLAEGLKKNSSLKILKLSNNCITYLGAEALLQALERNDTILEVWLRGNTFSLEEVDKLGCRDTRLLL

HEK293 = experiment: cells; details: Homo sapiens
[29] = molecular target: T6, Nucleotide-binding oligomerization domain-containing protein 1 (Homo sapiens, UniProt Q9Y239); experiment: NOD1 signaling inhibitors, SAR follow-up, revised (AID 2333); type: functional
T6 sequence (Q9Y239 whole entry): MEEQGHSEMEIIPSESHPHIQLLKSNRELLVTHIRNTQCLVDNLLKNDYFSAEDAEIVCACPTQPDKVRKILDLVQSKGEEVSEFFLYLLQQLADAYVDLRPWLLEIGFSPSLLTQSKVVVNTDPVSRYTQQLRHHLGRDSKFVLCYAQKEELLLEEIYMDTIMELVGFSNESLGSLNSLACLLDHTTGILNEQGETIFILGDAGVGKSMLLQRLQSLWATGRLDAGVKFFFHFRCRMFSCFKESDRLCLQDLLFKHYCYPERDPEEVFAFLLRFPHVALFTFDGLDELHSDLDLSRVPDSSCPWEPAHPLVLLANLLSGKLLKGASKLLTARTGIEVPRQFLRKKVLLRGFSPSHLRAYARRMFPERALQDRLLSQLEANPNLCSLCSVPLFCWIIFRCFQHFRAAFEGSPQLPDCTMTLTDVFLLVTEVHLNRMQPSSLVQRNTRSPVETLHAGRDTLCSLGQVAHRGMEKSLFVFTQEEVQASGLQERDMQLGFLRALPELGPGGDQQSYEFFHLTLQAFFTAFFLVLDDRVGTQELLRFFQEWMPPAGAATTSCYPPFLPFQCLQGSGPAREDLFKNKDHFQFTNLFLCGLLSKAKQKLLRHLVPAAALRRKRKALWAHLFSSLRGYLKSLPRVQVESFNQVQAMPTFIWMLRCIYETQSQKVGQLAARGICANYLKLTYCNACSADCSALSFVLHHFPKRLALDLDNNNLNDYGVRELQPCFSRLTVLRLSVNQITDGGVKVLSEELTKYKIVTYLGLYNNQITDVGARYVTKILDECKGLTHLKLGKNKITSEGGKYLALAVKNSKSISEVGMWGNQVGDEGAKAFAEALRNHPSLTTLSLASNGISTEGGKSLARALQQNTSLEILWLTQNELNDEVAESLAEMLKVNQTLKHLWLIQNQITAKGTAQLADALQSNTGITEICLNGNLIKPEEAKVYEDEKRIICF

Tumor necrosis factor = Tumor necrosis factor (Homo sapiens, UniProt P01375); experiment: TNFa-triggered NF-kB activation inhibitors, SAR follow-up, cell-based, revised (AID 2337); type: functional
[30] = inhibition of ADP-Glo detection reagents, dose response, artefact control for CDK5 inhibitor project, biochemical, luminescence, cherry-picked samples, set 2 (AID 504546); type: functional

T1 sequence (Q9UBE0 whole entry): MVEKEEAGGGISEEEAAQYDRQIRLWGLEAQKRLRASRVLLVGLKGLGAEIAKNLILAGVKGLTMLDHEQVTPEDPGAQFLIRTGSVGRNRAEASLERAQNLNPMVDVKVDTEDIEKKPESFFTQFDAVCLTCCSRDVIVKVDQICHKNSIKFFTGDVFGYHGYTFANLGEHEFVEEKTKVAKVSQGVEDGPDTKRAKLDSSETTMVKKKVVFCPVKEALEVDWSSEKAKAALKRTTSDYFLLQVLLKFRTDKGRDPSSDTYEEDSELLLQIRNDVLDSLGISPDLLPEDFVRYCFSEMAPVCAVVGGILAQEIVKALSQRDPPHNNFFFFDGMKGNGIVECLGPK
T1 sequence (Q9UBT2 whole entry): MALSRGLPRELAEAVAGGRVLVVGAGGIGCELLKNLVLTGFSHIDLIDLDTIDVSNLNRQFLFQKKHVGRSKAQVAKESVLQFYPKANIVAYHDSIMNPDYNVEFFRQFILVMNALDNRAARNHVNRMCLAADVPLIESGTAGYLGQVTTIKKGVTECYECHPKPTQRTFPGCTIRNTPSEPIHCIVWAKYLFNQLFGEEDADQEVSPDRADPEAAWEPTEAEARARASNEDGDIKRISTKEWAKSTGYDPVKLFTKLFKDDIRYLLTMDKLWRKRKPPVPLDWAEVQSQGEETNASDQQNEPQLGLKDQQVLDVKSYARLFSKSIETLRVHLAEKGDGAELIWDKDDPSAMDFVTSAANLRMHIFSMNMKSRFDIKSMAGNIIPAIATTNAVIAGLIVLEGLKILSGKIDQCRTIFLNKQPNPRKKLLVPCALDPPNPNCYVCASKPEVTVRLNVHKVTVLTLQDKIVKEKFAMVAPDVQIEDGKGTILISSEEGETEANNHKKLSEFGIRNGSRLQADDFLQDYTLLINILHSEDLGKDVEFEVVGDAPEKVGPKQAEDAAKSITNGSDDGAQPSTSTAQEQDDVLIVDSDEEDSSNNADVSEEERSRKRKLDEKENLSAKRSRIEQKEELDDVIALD

## COc1cc(/C=C2\SC(=O)N(CC(=O)Nc3ccccc3F)C2=O)cc(Cl)c1O
SUMO-activating enzyme [1]
  IC50: 15.6 µM (active)
[2]
  IC50: 0.275 µM (active)
[3]
  IC50: 0.238 µM (active)
SUMO-activating enzyme [4]
  IC50: 22.1 µM (active)

## Nc1nc2ccccc2n1S(=O)(=O)c1ccc(Cl)cc1
Interleukin-8
  IC50: > 5 µM (inactive)

## COC(=O)c1c(C(=O)OC)n(CCCN)c2ccc(C)cc12
Protein Rev
  IC50: > 79.4 µM (not active)

## CN(CC(=O)Nc1ccc(F)c(F)c1)S(=O)(=O)c1cccc2nsnc12
[5]
  EC50: > 50 µM (not active)

## COc1ccc2[nH]c(=O)c3c(c2c1)OC(C)(C)C=C3 [HAPLAMINE]
[6]
  AC50: 5.53 µM (active)
[7]
  AC50: 3.86 µM (active)
Cytochrome P450 2C19
  AC50: 7.94 µM (inconclusive)
[8]
  AC50: 10.4 µM (active)
[9]
  AC50: 14.8 µM (active)
[10]
  AC50: 5.32 µM (active)
Cytochrome P450 2C9
  AC50: 25.1 µM (inconclusive)

## CC(=O)c1c(C(C)=O)c(C)n(-c2ccc(C)c(NC(=O)c3ccccc3Cl)c2)c1C
[11]
  AC50: 0.043 µM (active)

## COc1ccc(C(c2cc3c(cc2O)OCO3)N2CCOCC2)cc1 (stereo unspecified)
[12]
  IC50: 6.51 µM (not active)

## COc1ccc(NC(=O)/C(Cl)=C(/Cl)[S+]([O-])Cc2ccc(C)cc2)cn1 (stereo unspecified)
[13]
  IC50: 3.76 µM (active)
[14]
  IC50: 4.46 µM (active)
[15]
  IC50: 0.879 µM (active)
[16]
  EC50: > 49.7 µM (not active)
[17]
  EC50: > 112 µM (not active)
[18]
  IC50: 4.71 µM
[19]
  CC50: 2.13 µM (active)
[20]
  IC50: 0.396 µM (active)
Beta-galactosidase [21]
  EC50: > 40 µM (inactive)
Beta-galactosidase [22]
  EC50: > 31.5 µM (inactive)
HeLa
  CC50: 1.12 µM (active)
[23]
  EC50: 5.74 µM (active)
INS1
  AC50: 0.855 µM (active)
Wee1-like protein kinase
  EC50: > 49.7 µM (not active)
[24]
  EC50: 0.96 µM (active)
[25]
  IC50: 29.8 µM (inactive)
[26]
  IC50: 0.967 µM (active)
[27]
  IC50: 2.26 µM (active)

## O=C(O)Cc1ccccc1Nc1c(Cl)cccc1Cl [DICLOFENAC]
Staphylococcus aureus
  IC50: 0.943 µM (active)

## CN(C)c1ccc(C(=O)Nc2nc3ccccc3n2Cc2ccc(Cl)cc2)cc1
[28]
  IC50: > 20 µM (inactive)
HEK293
  IC50: > 20 µM (inactive)
[29]
  IC50: > 20 µM (inactive)
Tumor necrosis factor
  IC50: > 20 µM (inactive)

## COc1cccc(C(=O)O/N=C(\N)c2ccccn2)c1
[30]
  AC50: 26.7 µM (active)
[23]
  EC50: 3.65 µM (active)
